This note sets out measurements from BindingDB's records for doi:10.1016/s0968-0896(98)00004-2 (Sankyo, 1998).

For the assay, the target named is T1, Dimer of Gag-Pol polyprotein [489-587] (Human immunodeficiency virus 1, UniProt P12497).
T1 construct: 489-587
The assay can be described thus: Protease Inhibition Assay. As to the method:
The inhibitory activities of the compounds toward HIV-1 PR were determined by sodium dodecyl sulfate-polyacrylamide gel electrophoresis (SDS-PAGE) assay. The IC50 values of active compounds were determined using the partially purified protease and the synthetic substrate Ac-Ser-Gln-AsnTyr-Pro-Ile-Val-NH2.

SMILES strings stand for the structures.

With `CCCc1ccccc1C(=O)N[C@@H](Cc1ccccc1)[C@H](O)C(=O)N1C[C@@H](Cl)C[C@H]1C(=O)NC(C)(C)C` [(2S,4S)-N-tert-butyl-4-chloro-1-[(2S,3S)-2-hydroxy-4-phenyl-3-[(2-propylphenyl)formamido]butanoyl]pyrrolidine-2-carboxamide], the IC50 turned out to be 29 nM. This counts as double-digit nanomolar.
In turn, `CCc1c(O)cccc1C(=O)N[C@@H](Cc1ccccc1)[C@H](O)C(=O)N1C[C@@H](Cl)C[C@H]1C(=O)NC(C)(C)C` [(2S,4S)-N-tert-butyl-4-chloro-1-[(2S,3S)-3-[(2-ethyl-3-hydroxyphenyl)formamido]-2-hydroxy-4-phenylbutanoyl]pyrrolidine-2-carboxamide] showed an IC50 of 0.9 nM. Against the preceding compound, the IC50 is about 32-fold lower.

What is called IC50 is the midpoint of a concentration-inhibition curve.
